Assay results: patent publication US20230174484A1, “ANTAGONISTS OF GPR39 PROTEIN” (Oregon Health & Science University, priority 2020, published 2023)
Entries after “also recorded” stand apart in the source; their conditions may differ.

Experiments:
[1] = tested on: wild-type mice, left coronary artery occlusion/reperfusion; experiment: Infarct size after left coronary artery occlusion and reperfusion in mice; type: in vivo, mouse; conditions: WT mice, single dose 15 min after occlusion, 45 min occlusion, 2 hr reperfusion, versus vehicle
Protocol: FIG. 3A depicts the timeline of experimental design. EXAMPLE 34 was given 15 min after left coronary occlusion as a single dose during a 45 min occlusion followed by 2 hr of reperfusion.
Infarct size in both FIG. 3C and FIG. 3D is expressed as a percent of AAR defined by Evans Blue. Summary data are depicted to the right of actual images from single representative animals.
The role of pericytes in tissue necrosis following coronary occlusion was examined (FIG. 3A).

[2] = tested on: wild-type mice, left coronary artery occlusion/reperfusion; experiment: No reflow after coronary occlusion and reperfusion in mice (Thioflavin S / Evans Blue); type: in vivo, mouse; conditions: WT mice, 1.5 mg/kg i.v. 15 min after occlusion, 45 min occlusion, 2 hr reperfusion, versus vehicle
Protocol: FIGS. 4A-4D depict no reflow data from WT, GPR39 KO, and EXAMPLE 34 mice. Thioflavin-S and Evans Blue were injected ante-mortem and measurement of no reflow (area without Evans Blue on the right panel). […] EXAMPLE 34 was given 15 min after coronary occlusion which lasted a total of 45 min followed by 2 hour reperfusion. The role of pericytes was examined in no reflow after reperfusion in a separate group of animals since infarct size and no reflow post-mortem cciuid not be measured in the same animals, Thioflavin S, a perfusion marker, was injected into the left coronary artery after reperfusion. Thereafter, the left coronary artery was briefly re-occluded and 0.2 ml Evan's blue (1%) injected. The heart was then excised, transversely sliced into 5-6 pieces and photographed under UV light (under which Thioflavin S fluoresces blue) to identify the area of no reflow and under standard lighting to identify the AAR, and the no reflow zone expressed as a percent of the AAR.

[3] = tested on: spontaneously hypertensive rat (SHR); experiment: Acute intravenous effect on blood pressure in the spontaneously hypertensive rat; type: in vivo; conditions: for BP reduction, percentage of pre-administration baseline: lowest value over 10 min, isoflurane anaesthesia
Protocol: Decrease in BP was expressed as a percentage of baseline BP (*p<0.05).
The effect of acute intravenous administration of EXAMPLE 34 on BP in the spontaneously hypertensive rat (SHR) was determined. […] At 10 mg/kg, BP was reduced by 15%, and at 25 mg/kg, the reduction exceeded 20% of pre-administration baseline. EXAMPLE 34 was administered slowly via bolus injections through the jugular vein in a vehicle consisting of 100% PEG 400, and the change in BP after administration (lowest value over 10 min) was normalized to pre-administration baseline. This was the first proof of principle that pharmacological inhibition of GPR39 reduced BP acutely in a well-established animal model of hypertension.

[4] = biological target: T1, human GPR39 receptor (Homo sapiens, UniProt O43194); experiment: Measurement of intracellular calcium response in PC3 cells (FLIPR), antagonism of the C3 agonist response; type: cell-based; conditions: functional pKi (modified Cheng-Prusoff), inhibition of the C3 (TC-G 1008) response at EC90, 30 μM ZnCl2, read-out: fpKi activity
T1 construct: PC3 Cells, Expressing the Endogenous Human GPR39 Receptor; endogenous in cells; host or cells: PC3 (human prostate adenocarcinoma) cells
T1 sequence (O43194 1-453): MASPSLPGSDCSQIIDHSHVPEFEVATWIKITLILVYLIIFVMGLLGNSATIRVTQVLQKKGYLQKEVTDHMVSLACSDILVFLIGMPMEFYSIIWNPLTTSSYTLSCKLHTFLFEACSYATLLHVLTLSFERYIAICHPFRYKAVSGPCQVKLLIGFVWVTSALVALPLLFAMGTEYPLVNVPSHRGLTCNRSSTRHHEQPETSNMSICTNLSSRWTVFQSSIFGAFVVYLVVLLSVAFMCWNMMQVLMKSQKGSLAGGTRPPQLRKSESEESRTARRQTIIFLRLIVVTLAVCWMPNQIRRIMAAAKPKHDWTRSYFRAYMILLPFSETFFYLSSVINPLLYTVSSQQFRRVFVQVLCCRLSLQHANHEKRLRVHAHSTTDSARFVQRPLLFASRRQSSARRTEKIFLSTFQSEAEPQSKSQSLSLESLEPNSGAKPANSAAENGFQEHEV
How it was run: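 PC3 cells with endogenous human GPR39 were loaded with Calcium-6 and read by FLIPR, with compounds tested in buffer with 30 μM final ZnCl2 and 0.32% DMSO. Peak Ca2+ signal was scored as % inhibition of the EC90 C3 response, fitted by four-parameter logistic. Functional pKi was derived via the modified Cheng-Prusoff equation.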

Compound: O=C(Nc1ccc(C(=O)N2CCN(c3ncnc4ccsc34)CC2)c(N2CCCCCC2)c1)C1CC1 [EXAMPLE 34, N-[3-(azepan-1-yl)-4-(4-thieno[3,2-d]pyrimidin-4-ylpiperazine-1-carbonyl)phenyl]Cyclopropanecarboxamide]
- Infarct size/area at risk (AAR) ratio [1]: significantly smaller; also recorded: significant reduction in infarct size
- No reflow zone / AAR ratio [2]: negligible no reflow zones; also recorded: significant reduction in no reflow/AAR ratio
- BP reduction, percentage of pre-administration baseline ([3]; 10 mg/kg i.v. bolus): 15%
- BP reduction, percentage of pre-administration baseline ([3]; 25 mg/kg i.v. bolus): exceeded 20%
- Effect on BP in SHR ([3]; i.v., concentrations higher than 10 mg/kg): significantly reduced BP
- Ki [4]: 1.26 to 6.31 µM
